Values joined by “and” are separate entries in the source; they are usually repeats but may differ in a detail not shown here. Equal values may be shown once. Read-outs that look alike come from different tables or passages of the source.
Experiments:
SARS2 = assay type: cell-based, SARS-CoV-2; conditions: for Percentage Infection Relative to Appropriate DMSO Control with Avg Background Subtraction: Nunc Celigo plates; for Percentage Inhibition Average 1 μM / Screening data (Relative infection to DMSO controls) Average 1 μM: SARS2, 1 μM; for Screening data (Relative infection to DMSO controls) Average 1 μM / Screening data (Relative infection to DMSO controls) Average 5 μM / Screening data (Relative infection to DMSO controls) Average 10 μM / Screening data (Relative infection to DMSO controls) Average 25 μM / Screening data (Relative infection to DMSO controls) Average 50 μM / Average (relative infection to DMSO over the 5 tested concentrations): 100=DMSO control; for Percentage Inhibition Average 5 μM / Screening data (Relative infection to DMSO controls) Average 5 μM: SARS2, 5 μM; for Percentage Inhibition Average 10 μM / Screening data (Relative infection to DMSO controls) Average 10 μM: SARS2, 10 μM; for Percentage Inhibition Average 25 μM / Screening data (Relative infection to DMSO controls) Average 25 μM: SARS2, 25 μM; for Percentage Inhibition Average 50 μM / Screening data (Relative infection to DMSO controls) Average 50 μM: SARS2, 50 μM; for Average (relative infection to DMSO over the 5 tested concentrations): SARS2, average over 1 to 50 uM; for Infection Data, Average, Mean: average of Exp 1-2 (SMW491, SMW492)
cells (nuclei count) = conditions: for Relative cell count to DMSO controls, Average 1 μM / Relative cell count to DMSO controls, Average 5 μM / Relative cell count to DMSO controls, Average 10 μM / Relative cell count to DMSO controls, Average 25 μM / Relative cell count to DMSO controls, Average 50 μM: toxicity data, 100=DMSO control; for Toxicity Data, Average, Mean percentage relative to DMSO control: Average of Exp 1 (SMW491) and Exp 2 (SMW492); for Relative cell count to DMSO controls, Average (for correlation analysis): average value over the 5 tested concentrations (1 to 50 uM)

| Structure (SMILES) | Percentage Inhibition Average 1 μM (SARS2) [%] | Screening data (Relative infection to DMSO controls) Average 1 μM (SARS2) | Percentage Inhibition Average 5 μM (SARS2) [%] | Screening data (Relative infection to DMSO controls) Average 5 μM (SARS2) | Percentage Inhibition Average 10 μM (SARS2) [%] | Screening data (Relative infection to DMSO controls) Average 10 μM (SARS2) | Percentage Inhibition Average 25 μM (SARS2) [%] | Screening data (Relative infection to DMSO controls) Average 25 μM (SARS2) | Percentage Inhibition Average 50 μM (SARS2) [%] | Screening data (Relative infection to DMSO controls) Average 50 μM (SARS2) | Average (relative infection to DMSO over the 5 tested concentrations) (SARS2) | Infection Data, Average, Mean (SARS2; n 4, 1 uM) [%] | Infection Data, Average, Mean (SARS2; n 4, 5 uM) [%] | Infection Data, Average, Mean (SARS2; n 4, 10 uM) [%] | Infection Data, Average, Mean (SARS2; n 4, 25 uM) [%] | Infection Data, Average, Mean (SARS2; n 4, 50 uM) [%] | Relative cell count to DMSO controls, Average 1 μM (cells (nuclei count)) | Relative cell count to DMSO controls, Average 5 μM (cells (nuclei count)) | Relative cell count to DMSO controls, Average 10 μM (cells (nuclei count)) | Relative cell count to DMSO controls, Average 25 μM (cells (nuclei count)) | also measured |
| --- | --- | --- | --- | --- | --- | --- | --- | --- | --- | --- | --- | --- | --- | --- | --- | --- | --- | --- | --- | --- | --- |
| CCN(CC)CCN(Cc1ccncc1)C(=O)c1cccs1 [SILCS38] | 23.75 | 76.25 | 15.22 | 84.78 | 26.94 | 73.06 | 1.37 | 98.63 | 13.51 | 86.49 | 83.84 | 76.25 | 84.78 | 73.06 | 98.63 | 86.49 | 111.85 | 110 | 115.05 | 107.71 | Percentage Infection Relative to Appropriate DMSO Control with Avg Background Subtraction (SARS2; Exp 1 (SMW491), 1 uM): 101.61% and 80.30%; Percentage Infection Relative to Appropriate DMSO Control with Avg Background Subtraction (SARS2; Exp 1 (SMW491), 5 uM): 101.51% and 104.07%; Percentage Infection Relative to Appropriate DMSO Control with Avg Background Subtraction (SARS2; Exp 1 (SMW491), 10 uM): 91.03% and 87.80%; Percentage Infection Relative to Appropriate DMSO Control with Avg Background Subtraction (SARS2; Exp 1 (SMW491), 25 uM): 110.71% and 103.81%; Percentage Infection Relative to Appropriate DMSO Control with Avg Background Subtraction (SARS2; Exp 1 (SMW491), 50 uM): 96.25% and 89.03%; Percentage Infection Relative to Appropriate DMSO Control with Avg Background Subtraction (SARS2; Exp 2 (SMW492), 1 uM): 74.34% and 48.74%; Percentage Infection Relative to Appropriate DMSO Control with Avg Background Subtraction (SARS2; Exp 2 (SMW492), 5 uM): 72.80% and 60.72%; Percentage Infection Relative to Appropriate DMSO Control with Avg Background Subtraction (SARS2; Exp 2 (SMW492), 10 uM): 63.76% and 49.65%; Percentage Infection Relative to Appropriate DMSO Control with Avg Background Subtraction (SARS2; Exp 2 (SMW492), 50 uM): 90.22% and 70.45%; Relative cell count to DMSO controls, Average 50 μM (cells (nuclei count)): 105.21; Toxicity Data, Average, Mean percentage relative to DMSO control (cells (nuclei count); n=4, 1 uM): 111.85%; Toxicity Data, Average, Mean percentage relative to DMSO control (cells (nuclei count); n=4, 5 uM): 110.00%; Toxicity Data, Average, Mean percentage relative to DMSO control (cells (nuclei count); n=4, 10 uM): 115.05%; Toxicity Data, Average, Mean percentage relative to DMSO control (cells (nuclei count); n=4, 25 uM): 107.71%; Toxicity Data, Average, Mean percentage relative to DMSO control (cells (nuclei count); n=4, 50 uM): 105.21%; Relative cell count to DMSO controls, Average (for correlation analysis) (cells (nuclei count)): 109.96 |
| CCN(CC)CCN(Cc1cc(C)c(Br)s1)Cc1cc(C)c(Br)s1 [SILCS39] | 21.81 | 78.19 | 48.17 | 51.83 | 79.68 | 20.32 | 95.89 | 4.11 | 93.60 | 6.40 | 32.17 | 78.19 | 51.83 | 20.32 | 4.11 | 6.40 | 107.69 | 114.94 | 149.83 | 128.15 | Percentage Infection Relative to Appropriate DMSO Control with Avg Background Subtraction (SARS2; Exp 1 (SMW491), 1 uM, listed as SICLS39): 94.45% and 94.76%; Percentage Infection Relative to Appropriate DMSO Control with Avg Background Subtraction (SARS2; Exp 1 (SMW491), 5 uM, listed as SICLS39): 61.21% and 63.14%; Percentage Infection Relative to Appropriate DMSO Control with Avg Background Subtraction (SARS2; Exp 1 (SMW491), 10 uM, listed as SICLS39): 26.66% and 13.52%; Percentage Infection Relative to Appropriate DMSO Control with Avg Background Subtraction (SARS2; Exp 1 (SMW491), 25 uM, listed as SICLS39): 1.98% and 2.03%; Percentage Infection Relative to Appropriate DMSO Control with Avg Background Subtraction (SARS2; Exp 2 (SMW492), 1 uM, listed as SICLS39): 55.17% and 68.37%; Percentage Infection Relative to Appropriate DMSO Control with Avg Background Subtraction (SARS2; Exp 2 (SMW492), 5 uM, listed as SICLS39): 40.93% and 42.02%; Percentage Infection Relative to Appropriate DMSO Control with Avg Background Subtraction (SARS2; Exp 2 (SMW492), 10 uM, listed as SICLS39): 21.95% and 19.13%; Percentage Infection Relative to Appropriate DMSO Control with Avg Background Subtraction (SARS2; Exp 2 (SMW492), 25 uM, listed as SICLS39): 5.42% and 6.99%; Percentage Infection Relative to Appropriate DMSO Control with Avg Background Subtraction (SARS2; Exp 2 (SMW492), 50 uM, listed as SICLS39): 5.19% and 10.37%; Relative cell count to DMSO controls, Average 50 μM (cells (nuclei count)): 46.35; Toxicity Data, Average, Mean percentage relative to DMSO control (cells (nuclei count); n=4, 1 uM): 107.69%; Toxicity Data, Average, Mean percentage relative to DMSO control (cells (nuclei count); n=4, 5 uM): 114.94%; Toxicity Data, Average, Mean percentage relative to DMSO control (cells (nuclei count); n=4, 10 uM): 149.83%; Toxicity Data, Average, Mean percentage relative to DMSO control (cells (nuclei count); n=4, 25 uM): 128.15%; Toxicity Data, Average, Mean percentage relative to DMSO control (cells (nuclei count); n=4, 50 uM): 46.35%; Relative cell count to DMSO controls, Average (for correlation analysis) (cells (nuclei count)): 109.39 |
| CN(C)CCCN(Cc1cccs1)C(=O)c1cccs1 [SILCS40] | −17.72 | 117.72 | 1.14 | 98.86 | −15.37 | 115.37 | −41.44 | 141.44 | 47.95 | 52.05 | 105.09 | 117.72 | 98.86 | 115.37 | 141.44 | 52.05 | 86.49 | 96.33 | 92.49 | 83.93 | SARS2 antiviral activity (SARS2): inactive; Percentage Infection Relative to Appropriate DMSO Control with Avg Background Subtraction (SARS2; Exp 1 (SMW491), 1 uM): 161.72% and 144.95%; Percentage Infection Relative to Appropriate DMSO Control with Avg Background Subtraction (SARS2; Exp 1 (SMW491), 5 uM): 118.41% and 120.39%; Percentage Infection Relative to Appropriate DMSO Control with Avg Background Subtraction (SARS2; Exp 1 (SMW491), 10 uM): 125.55% and 160.68%; Percentage Infection Relative to Appropriate DMSO Control with Avg Background Subtraction (SARS2; Exp 1 (SMW491), 25 uM): 122.15% and 145.90%; Percentage Infection Relative to Appropriate DMSO Control with Avg Background Subtraction (SARS2; Exp 1 (SMW491), 50 uM): 46.53% and 56.51%; Percentage Infection Relative to Appropriate DMSO Control with Avg Background Subtraction (SARS2; Exp 2 (SMW492), 1 uM): 86.70% and 77.51%; Percentage Infection Relative to Appropriate DMSO Control with Avg Background Subtraction (SARS2; Exp 2 (SMW492), 5 uM): 88.04% and 68.60%; Percentage Infection Relative to Appropriate DMSO Control with Avg Background Subtraction (SARS2; Exp 2 (SMW492), 10 uM): 101.31% and 73.96%; Percentage Infection Relative to Appropriate DMSO Control with Avg Background Subtraction (SARS2; Exp 2 (SMW492), 25 uM): 185.38% and 112.33%; Percentage Infection Relative to Appropriate DMSO Control with Avg Background Subtraction (SARS2; Exp 2 (SMW492), 50 uM): 61.71% and 43.46%; Relative cell count to DMSO controls, Average 50 μM (cells (nuclei count)): 117.52; Toxicity Data, Average, Mean percentage relative to DMSO control (cells (nuclei count); n=4, 1 uM): 86.49%; Toxicity Data, Average, Mean percentage relative to DMSO control (cells (nuclei count); n=4, 5 uM): 96.33%; Toxicity Data, Average, Mean percentage relative to DMSO control (cells (nuclei count); n=4, 10 uM): 92.49%; Toxicity Data, Average, Mean percentage relative to DMSO control (cells (nuclei count); n=4, 25 uM): 83.93%; Toxicity Data, Average, Mean percentage relative to DMSO control (cells (nuclei count); n=4, 50 uM): 117.52%; Relative cell count to DMSO controls, Average (for correlation analysis) (cells (nuclei count)): 95.35 |

From patent publication US20240132484A1, “BROAD SPECTRUM ANTIVIRAL COMPOUNDS TARGETING THE SKI COMPLEX” (priority 2020, published 2024)
